The test system of data set [1] is J774 cells. As to the kind of experiment: Unspecific cytotoxicity assay on J774 macrophages (resazurin). The data set is classed as cell-based, mouse. To be noted: mean ± SD, n = 3; for CC50 at 48 h: mouse. Background: Alamar Blue is a resazurin reagent that responds to reducing activity.
Data set [2] deals with Trypanosoma cruzi CL-B5 (DTU TcVI) epimastigotes. Nature of the data set: CL-B5 lacZ epimastigote susceptibility assay (CPRG). The following applies: T. cruzi CL-B5 lacZ epimastigotes, 72 h, mean ± SD, n = 3. The data set is classed as cell-based.
In data set [3] the test system is Trypanosoma cruzi Y (DTU TcII) epimastigotes. As to the kind of experiment: Y strain epimastigote susceptibility assay (resazurin). The format is cell-based. To be noted: T. cruzi Y strain epimastigotes, 48 h, mean ± SD, n = 3.
For data set [4], the system named is L929 cells. As to the kind of experiment: Unspecific cytotoxicity assay on L929 fibroblasts (resazurin). The format is cell-based. The following applies: mean ± SD, n = 3; for CC50 at 72 h: mouse.
Data set [5] relates to Trypanosoma cruzi CL-B5 amastigotes. As to the kind of experiment: CL-B5 lacZ intracellular amastigote susceptibility assay (CPRG). The data set is classed as cell-based. The following applies: intracellular amastigotes in L929 cells, 7 days, mean ± SD, n = 3.
The subject of data set [6] is Vero cells. Nature of the data set: Unspecific cytotoxicity assay in Vero cells (resazurin). The format is cell-based, African green monkey. The following applies: Vero cells, 24 h; brackets: 95% confidence interval.
For data set [7], the system named is Trichomonas vaginalis. Nature of the data set: Trichomonacidal in vitro assay (resazurin). The data set is classed as cell-based. The following applies: isolate JH31A#4, 24 h, brackets: 95% confidence interval.

Structures are written as SMILES. Where only a bound is given, the exact number is not on record here.

Consider `O=C(Cn1ccnc1[N+](=O)[O-])NCc1ccccc1` [Benznidazole, benznidazole, reference compound], for which the CC50 (in general, the concentration giving 50% cytotoxicity) at 48 h in data set [1] is greater than 256 µM. Besides, the IC50 (commonly the concentration needed to halve the response being measured) came to 25.3 ± 1.63 µM in data set [2] (Trypanosoma cruzi); 22.7 ± 1.82 µM in data set [3] (Trypanosoma cruzi); 0.47 ± 0.09 µM in data set [5] (Trypanosoma cruzi, 168 h). Further, the CC50 at 72 h in data set [4] was greater than 256 µM.
Take `NNC(=S)Nc1cccc2ccccc12` [Compound 31]: the CC50 in data set [6] was greater than 300 µM; in data set [1] (48 h) it was greater than 256 µM; in data set [4] (72 h) it was greater than 256 µM. In addition, the IC50 stood at 28.7 ± 4.61 µM in data set [2], 33.6 ± 5.72 µM in data set [3], 39.7 ± 9.91 µM in data set [5] and 30.2 µM in data set [7].
Take `COc1ccc(/C=N/NC(=S)Nc2ccc(OC)cc2)cc1` [Compound 43]: the CC50 at 48 h in data set [1] is greater than 256 µM. The half-inhibitory concentration (IC50) in data set [2] (Trypanosoma cruzi) came to 26.8 ± 2.68 µM; in data set [3] (Trypanosoma cruzi) it was 55.6 ± 16.3 µM; in data set [5] (Trypanosoma cruzi, 168 h), 39 ± 14.3 µM; in data set [7] (Trichomonas vaginalis, 24 h), 258 µM. In data set [4], this molecule returned a half-maximal cytotoxic concentration (CC50) at 72 h greater than 256 µM.
Molecule `COc1ccc(/C=N/NC(=S)Nc2cccc([N+](=O)[O-])c2)cc1` [Compound 57] showed a half-maximal cytotoxic concentration (CC50) at 48 h in data set [1] greater than 256 µM. Further, the IC50 in data set [2] (Trypanosoma cruzi) is 23 ± 6.33 µM; in data set [3] (Trypanosoma cruzi), greater than 256 µM; in data set [5] (Trypanosoma cruzi, 168 h), 22.3 ± 4.2 µM; in data set [7] (Trichomonas vaginalis, 24 h) it was 51.9 µM. The half-maximal cytotoxic concentration (CC50) at 72 h in data set [4] is greater than 256 µM.

The record behind these values is publication PMC8881069, “Thio- and selenosemicarbazones as antiprotozoal agents against Trypanosoma cruzi and Trichomonas vaginalis” (Journal of Enzyme Inhibition and Medicinal Chemistry, 2022).
